Results taken from ChEMBL document CHEMBL1201862, “PubChem BioAssay data set” (2004).
Values joined by “and” are separate entries in the source; they are usually repeats but may differ in a detail not shown here. Equal entries are not always repeated.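 A five-concentration, 48-hour dose response in 96-well plates underlies each endpoint, interpolated linearly between surrounding concentrations. Abbreviation: GI50, concentration required for 50% inhibition of growth.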 Active and inactive are the calls of the source. Rule as the data show it: active = GI50 up to about 1.1 µM and inactive = higher.

How the values were obtained:
Assay in all cases: NCI-60 cell line screen, 48 h
[1] = system: SN12C
[2] = system: A498
[3] = system: UO-31
[4] = system: A549
[5] = system: HCC 2998
[6] = system: OVCAR-4
[7] = system: MDA-N
[8] = system: MDA-MB-231
[9] = system: SF-295
[10] = system: SNB-75
[11] = system: SK-MEL-2
[12] = system: IGROV-1
[13] = system: ACHN
[14] = system: HCT-116
[15] = system: PC-3
[16] = system: DU-145
[17] = system: KM12
[18] = system: CAKI-1
[19] = system: RXF 393
[20] = system: SK-OV-3
[21] = system: SF-268
[22] = system: SW-620
[23] = system: HOP-62
[24] = system: BT-549
[25] = system: MOLT-4
[26] = system: OVCAR-3
[27] = system: UACC-62
[28] = system: NCI-H226
[29] = system: MDA-MB-435
[30] = system: HT-29
[31] = system: NCI-H460
[32] = system: U-251
[33] = system: OVCAR-5
[34] = system: EKVX
[35] = system: COLO 205
[36] = system: SK-MEL-28
[37] = system: SF-539
[38] = system: 786-0
[39] = system: SK-MEL-5
[40] = system: UACC-257
[41] = system: NCI/ADR-RES
[42] = system: NCI-H23
[43] = system: K562
[44] = system: OVCAR-8
[45] = system: RPMI-8226
[46] = system: M14
[47] = system: SNB-19
[48] = system: MCF7
[49] = system: TK-10
[50] = system: HCT-15
[51] = system: SR
[52] = system: T47D
[53] = system: HOP-92
[54] = system: Malme-3M
[55] = system: NCI-H522
[56] = system: Hs-578T
[57] = system: HL-60
[58] = system: CCRF-CEM

Structure (SMILES): CC1=CSC(O)(c2ccc(Cl)cc2)c2noc(=O)n21 (stereo not drawn)
- GI50 [1]: > 100 µM (inactive)
- GI50 [2]: > 100 µM (inactive)
- GI50 [3]: 58.1 µM (inactive)
- GI50 [4]: > 100 µM (inactive)
- GI50 [5]: 14.4 µM (inactive)
- GI50 [6]: > 100 µM (inactive)
- GI50 [7]: 88.3 µM (inactive)
- GI50 [8]: > 100 µM (inactive)
- GI50 [9]: > 100 µM (inactive)
- GI50 [10]: 61.7 µM (inactive)
- GI50 [11]: 85.9 µM (inactive)
- GI50 [12]: > 100 µM (inactive)
- GI50 [13]: > 100 µM (inactive)
- GI50 [14]: 53.5 µM (inactive)
- GI50 [15]: 71.1 µM (inactive)
- GI50 [16]: > 100 µM (inactive)
- GI50 [17]: > 100 µM (inactive)
- GI50 [18]: > 100 µM (inactive)
- GI50 [19]: 71.6 µM (inactive)
- GI50 [20]: > 100 µM (inactive)
- GI50 [21]: > 100 µM (inactive)
- GI50 [22]: > 100 µM (inactive)
- GI50 [23]: > 100 µM (inactive)
- GI50 [24]: > 100 µM (inactive)
- GI50 [25]: > 100 µM (inactive)
- GI50 [26]: 72.1 µM (inactive)
- GI50 [27]: 44.9 µM (inactive)
- GI50 [28]: > 100 µM (inactive)
- GI50 [29]: 30.1 µM (inactive)
- GI50 [30]: > 100 µM (inactive)
- GI50 [31]: 51.2 µM (inactive)
- GI50 [32]: > 10 µM (inactive)
- GI50 [33]: > 100 µM (inactive)
- GI50 [34]: > 100 µM (inactive)
- GI50 [35]: > 100 µM (inactive)
- GI50 [36]: 29.2 µM (inactive)
- GI50 [37]: > 100 µM (inactive)
- GI50 [38]: > 100 µM (inactive)
- GI50 [39]: 59.6 µM (inactive)
- GI50 [40]: 24.4 µM (inactive)
- GI50 [41]: 53.7 µM (inactive)
- GI50 [42]: 48.4 µM (inactive)
- GI50 [43]: 61.1 µM (inactive)
- GI50 [44]: 97.7 µM (inactive)
- GI50 [45]: 57.7 µM (inactive)
- GI50 [46]: > 100 µM (inactive)
- GI50 [47]: > 100 µM (inactive)
- GI50 [48]: 66.4 µM (inactive)
- GI50 [49]: > 100 µM (inactive)
- GI50 [50]: 72.9 µM
- GI50 [51]: 50.7 µM (inactive)
- GI50 [52]: 54.8 µM (inactive)
- GI50 [53]: 94.8 µM (inactive)

Structure (SMILES): CC(=O)c1c(-c2ccc(Cl)cc2)c(C#N)c(=S)n(C2OC(CO)C(O)C(O)C2O)c1-c1ccccc1 (stereo not drawn)
- GI50 [1]: > 100 µM (inactive) and > 85.7 µM (inactive)
- GI50 [5]: > 100 µM (inactive) and > 83.8 µM (inactive)
- GI50 [7]: 80.7 µM (inactive) and 48.2 µM (inactive)
- GI50 [9]: > 100 µM (inactive) and 70.6 µM (inactive)
- GI50 [54]: > 100 µM (inactive)
- GI50 [10]: 14.7 µM (inactive)
- GI50 [12]: 62.8 µM (inactive)
- GI50 [13]: 55.2 µM (inactive) and 45.5 µM (inactive)
- GI50 [16]: > 100 µM (inactive) and > 93.3 µM (inactive)
- GI50 [17]: > 100 µM (inactive) and > 68.9 µM (inactive)
- GI50 [18]: 45.2 µM (inactive) and > 89.1 µM (inactive)
- GI50 [19]: 83.4 µM (inactive) and 75.5 µM (inactive)
- GI50 [20]: > 100 µM (inactive)
- GI50 [21]: 89.3 µM (inactive) and 61.5 µM (inactive)
- GI50 [22]: 59.6 µM (inactive)
- GI50 [24]: > 100 µM (inactive)
- GI50 [26]: > 80.4 µM (inactive) and 64.9 µM (inactive)
- GI50 [28]: 61.4 µM (inactive)
- GI50 [29]: 77.6 µM (inactive)
- GI50 [30]: > 100 µM (inactive) and 52.1 µM (inactive)
- GI50 [55]: > 100 µM (inactive) and 53.8 µM (inactive)
- GI50 [56]: > 100 µM (inactive)
- GI50 [36]: 82.2 µM (inactive)
- GI50 [40]: > 100 µM (inactive)
- GI50 [41]: > 100 µM (inactive) and 98.9 µM (inactive)
- GI50 [42]: > 100 µM (inactive)
- GI50 [44]: > 100 µM (inactive) and > 57.3 µM (inactive)
- GI50 [45]: 31.9 µM (inactive)
- GI50 [46]: > 100 µM (inactive)
- GI50 [48]: > 100 µM (inactive) and > 71 µM (inactive)
- GI50 [49]: > 100 µM (inactive)
- GI50 [52]: > 82.6 µM (inactive)

Structure (SMILES): c1ccc2c(c1)nc1ccccn12
- GI50 [57]: > 100 µM (inactive)
- GI50 [1]: > 100 µM (inactive)
- GI50 [2]: 1.37 µM (inactive)
- GI50 [3]: > 100 µM (inactive)
- GI50 [4]: > 100 µM (inactive)
- GI50 [5]: > 100 µM (inactive)
- GI50 [7]: > 100 µM (inactive)
- GI50 [9]: > 100 µM (inactive)
- GI50 [54]: > 100 µM (inactive)
- GI50 [10]: > 100 µM (inactive)
- GI50 [12]: > 100 µM (inactive)
- GI50 [13]: > 100 µM (inactive)
- GI50 [14]: > 100 µM (inactive)
- GI50 [15]: > 100 µM (inactive)
- GI50 [16]: > 100 µM (inactive)
- GI50 [17]: > 100 µM (inactive)
- GI50 [19]: > 100 µM (inactive)
- GI50 [20]: > 100 µM (inactive)
- GI50 [21]: > 100 µM (inactive)
- GI50 [22]: > 100 µM (inactive)
- GI50 [58]: > 100 µM (inactive)
- GI50 [23]: > 100 µM (inactive)
- GI50 [24]: > 100 µM (inactive)
- GI50 [25]: > 100 µM (inactive)
- GI50 [26]: > 100 µM (inactive)
- GI50 [27]: > 100 µM (inactive)
- GI50 [28]: > 100 µM (inactive)
- GI50 [29]: > 100 µM (inactive)
- GI50 [30]: > 100 µM (inactive)
- GI50 [31]: > 100 µM (inactive)
- GI50 [32]: > 100 µM (inactive)
- GI50 [33]: > 100 µM (inactive)
- GI50 [34]: > 100 µM (inactive)
- GI50 [56]: 33.6 µM (inactive)
- GI50 [35]: > 100 µM (inactive)
- GI50 [36]: > 100 µM (inactive)
- GI50 [37]: > 100 µM (inactive)
- GI50 [38]: > 100 µM (inactive)
- GI50 [39]: > 100 µM (inactive)
- GI50 [40]: > 100 µM (inactive)
- GI50 [41]: > 100 µM (inactive)
- GI50 [42]: > 100 µM (inactive)
- GI50 [43]: > 100 µM (inactive)
- GI50 [44]: > 100 µM (inactive)
- GI50 [45]: > 100 µM (inactive)
- GI50 [46]: > 100 µM (inactive)
- GI50 [47]: > 100 µM (inactive)
- GI50 [48]: > 100 µM (inactive)
- GI50 [49]: > 100 µM (inactive)
- GI50 [50]: > 100 µM
- GI50 [51]: > 100 µM (inactive)
- GI50 [52]: > 100 µM (inactive)
- GI50 [53]: > 100 µM (inactive)
